Laboratory results taken from patent US20220388962A1 (Biohaven Therapeutics Ltd., priority 2019, published 2022).
Structures can show the parent of a compound that is named as a salt.

What follows are compounds tested against TDP-43 (Homo sapiens, UniProt Q13148) (assay: TDP-43-DNA alpha-screen assay (bt-TAR-32 displacement)). Conditions: bt-TAR-32 0.125 nM, 15 ng/ml TDP-43.
Chain of TDP-43 (Q13148 whole entry): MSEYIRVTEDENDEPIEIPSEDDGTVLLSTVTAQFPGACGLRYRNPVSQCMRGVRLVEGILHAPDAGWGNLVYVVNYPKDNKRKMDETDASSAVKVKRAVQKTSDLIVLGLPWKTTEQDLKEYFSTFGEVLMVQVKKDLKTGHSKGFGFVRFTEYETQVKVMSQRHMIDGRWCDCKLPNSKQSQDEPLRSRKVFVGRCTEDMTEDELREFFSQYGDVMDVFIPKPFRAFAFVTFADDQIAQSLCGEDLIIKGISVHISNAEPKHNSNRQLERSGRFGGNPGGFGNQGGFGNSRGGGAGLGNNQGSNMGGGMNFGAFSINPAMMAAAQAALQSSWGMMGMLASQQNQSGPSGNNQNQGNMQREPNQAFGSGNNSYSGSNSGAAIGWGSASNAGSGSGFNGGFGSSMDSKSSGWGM
Type: binding
Protocol: Alpha-screen assay: Displacement of bt-TG6 binding was measured using AlphaScreen technology as previously described (Cassel, J. A. et al., Journal of Biomolecular Screening, 2010, 15, 1099-1106; Cassel, J. A.; Reitz, A. B. et al. The effects of small molecule inhibitors of nucleic acid binding to TDP-43 on TDP-43 metabolism and function. Biochimie, 2012, 94, 1974-1981).
Test compounds were diluted in assay buffer (25 mM Tris [pH 7.4], 0.1% bovine serum albumin [BSA], 0.1% Triton X-100) at 4× the desired final concentration. Dilutions of test compound (50 to 0.02 μM in half-log dilutions with a no compound control well) were pre-incubated with TDP-43 (5 μl of 60 ng/mL) pre-bound to AlphaScreen® anti-GST acceptor beads (5 μl of 40 μg/mL) in 15 μl volume for 30 minutes at 23° C. with shaking. Assays were initiated by the addition of 5 μl bt-TAR-32 (5′-CTGCTTTTTGCCTGTACTGGGTCTCTGTGGTT-3′) 0.5 nM pre-bound to AlphaScreen® strepavidin donor beads (40 μg/mL). After incubation in the dark at 23° C. for 90 minutes with shaking, the AlphaScreen® signal was measured on a Synergy 2 plate reader (BioTek, Winooski, Vt.). IC50 values were determined from nonlinear regression fits of the data to a Sigmoidal dose response variable slope model in GraphPad Prism. Final assay conditions are 25 mM Tris [pH 7.4], 0.1% bovine serum albumin [BSA], 0.100 Triton X-100, 15 ng/ml TDP-43, 0.125 nM bTAR32, 10 ug/ml […].
For `COc1ccc(-c2cc(NCCCNCCCNc3ccncc3)c3ccccc3n2)cc1` [Example 63, N^1-(2-(4-methoxyphenyl)quinolin-4-yl)-N^3-(3-(pyridin-4-ylamino)propyl)propane-1,3-diamine dihydrochloride], the IC50 was 100 nM.
`COc1ccc(-c2cc(NC3CCN(CCCN4C(=O)c5ccccc5C4=O)CC3)c3ccccc3n2)cc1` [Example 64, 2-(3-(4-((2-(4-Methoxyphenyl)quinolin-4-yl)amino)piperidin-1-yl)propyl) isoindoline-1,3-dione dihydrochloride] was tested, and the IC50 was 3600 nM.
Work on `COc1ccc(-c2cc(NCC3CCCN(CCCN4C(=O)c5ccccc5C4=O)C3)c3ccccc3n2)cc1` (centres unmarked) [Example 65, 2-(3-(3-(((2-(4-Methoxyphenyl)quinolin-4-yl)amino)methyl)piperidin-1-yl)propyl)isoindoline-1,3-dione] yielded an IC50 of 730 nM.
With `COc1ccc(-c2cc(NCCCNCCCNS(C)(=O)=O)c3ccccc3n2)cc1` [Example 66, N-(3-((3-((2-(4-Methoxyphenyl)quinolin-4-yl)amino)propyl)amino)propyl) methanesulfonamide hydrochloride] the IC50 was 1410 nM.
Work on `COc1ccc(-c2cc(NCCC3CCCCN3CCCN3C(=O)c4ccccc4C3=O)c3ccccc3n2)cc1` (centres unmarked) [Example 67, 2-(3-(2-(2-((2-(4-Methoxyphenyl)quinolin-4-yl)amino)ethyl)piperidin-1-yl)propyl) isoindoline-1,3-dione] yielded an IC50 of 290 nM.
Work on `COc1ccc(-c2cc(NCCCN3CCN4CCCC4C3)c3ccccc3n2)cc1` (centres unmarked) [Example 68, N-(3-(Hexahydropyrrolo[1,2-a]pyrazin-2(1H)-yl)propyl)-2-(4-methoxyphenyl)quinolin-4-amine dihydrochloride] yielded an IC50 of 2160 nM.
Compound `COc1ccc(-c2cc(NC3CCN(C4CCN(C)CC4)CC3)c3ccccc3n2)cc1` [Example 69, 2-(4-Methoxyphenyl)-N-(1′-methyl-[1,4′-bipiperidine]-4-yl)quinolin-4-amine] has an IC50 of 470 nM.
In the case of `COc1ccc(-c2cc(NCCCNC3CCC4CN(Cc5ccccc5)CC43)c3ccccc3n2)cc1` (centres unmarked) [Example 70, N^1-(2-Benzyloctahydrocyclopenta[c]pyrrol-4-yl)-N^3-(2-(4-methoxyphenyl)quinolin-4-yl)propane-1,3-diamine trihydrochloride], the IC50 is reported as 170 nM.
`COc1ccc(-c2cc(NCCCNCC3CCN(CC4CC4)CC3)c3ccccc3n2)cc1` [Example 71, N^1-((1-(Cyclopropylmethyl)piperidin-4-yl)methyl)-N^3-(2-(4-methoxyphenyl)quinolin-4-yl)propane-1,3-diamine trihydrochloride] was tested, and the IC50 was 100 nM.
`COc1ccc(-c2cc(NCCCN3CCC(C(N)=O)CC3)c3ccccc3n2)cc1` [Example 72, 1-(3-((2-(4-Methoxyphenyl)quinolin-4-yl)amino)propyl)piperidine-4-carboxamide dihydrochloride] was tested, and the IC50 was 930 nM.
With `COc1ccc(-c2cc(NCCCN3CCN(C)CC3)c3ccccc3n2)cc1` [Example 73, 2-(4-Methoxyphenyl)-N-(3-(4-methylpiperazin-1-yl)propyl)quinolin-4-amine] the IC50 was 1710 nM.
`COc1ccc(-c2cc(NCCN3CCN(C)CC3)c3ccccc3n2)cc1` [Example 74, 2-(4-Methoxyphenyl)-N-(2-(4-methylpiperazin-1-yl)ethyl)quinolin-4-amine] showed an IC50 of 1850 nM.
`COc1ccc(-c2cc(NCCCN3CCC(O)CC3)c3ccccc3n2)cc1` [Example 75, 1-(3-((2-(4-Methoxyphenyl)quinolin-4-yl)amino)propyl)piperidin-4-ol] gave an IC50 of 590 nM.
`COc1ccc(-c2cc(NCCCN3CCOCC3)c3ccccc3n2)cc1` [Example 76, 2-(4-Methoxyphenyl)-N-(3-morpholinopropyl)quinolin-4-amine] gave an IC50 of 6280 nM.
`COc1ccc(-c2cc(NCCCN(C)CCCNC(=O)Cc3c(C)c4ccc(N)cc4oc3=O)c3ccccc3n2)cc1` [Example 77, 2-(7-Amino-4-methyl-2-oxo-2H-chromen-3-yl)-N-(3-((3-((2-(4-methoxyphenyl)quinolin-4-yl)amino)propyl)(methyl)amino)propyl)acetamide trihydrochloride] showed an IC50 of 250 nM.
`COc1ccc(-c2cc(NCCCN(C)CCCNS(=O)(=O)c3cccc4c(N(C)C)cccc34)c3ccccc3n2)cc1` [Example 78, 5-(dimethylamino)-N-{3-[(3-{[2-(4-methoxyphenyl)quinolin-4 yl]amino}propyl)(methyl)amino]propyl}naphthalene-1-sulfonamide] showed an IC50 of 1260 nM.
Compound `COc1cc2nc(-c3ccc(N4CCNCC4)cc3)cc(N[C@H]3C[C@@H](N)C3)c2cc1OC` [Example 79] has an IC50 of 20 nM.
In the case of `COc1cc2nc(-c3ccc(N4CCNCC4)cc3)cc(N[C@H]3C[C@H](N)C3)c2cc1OC` [Example 80], the IC50 is reported as 20 nM.
Work on `COc1cc2nc(-c3ccc(N4CCNCC4)cc3)cc(N[C@H]3CC[C@H](N)CC3)c2cc1OC` [Example 81, (1R,4R)—N^1-(6,7-dimethoxy-2-(4-(piperazin-1-yl)phenyl)quinolin-4-yl)cyclohexane-1,4-diamine] yielded an IC50 of 30 nM.
For `COc1cc2nc(-c3ccc(N4CCNCC4)cc3)cc(NCCCN)c2cc1OC` [Example 82], the IC50 was 30 nM.
For `N[C@H]1C[C@@H](Nc2cc(-c3ccc(N4CCNCC4)cc3)nc3ccccc23)C1` [Example 83], the IC50 was 30 nM.
`NCCCNc1cc(-c2ccc(-n3cc4c(n3)CNC4)cc2)nc2ccccc12` [Example 84, N^1-(2-(4-(5,6-dihydropyrrolo[3,4-c]pyrazol-2(4H)-yl)phenyl)quinolin-4-yl)propane-1,3-diamine] gave an IC50 of 40 nM.
For `COc1cc2nc(-c3ccc(N4CCNCC4)cc3)cc(N[C@H]3CC[C@@H](N)CC3)c2cc1OC` [Example 85], the IC50 was 40 nM.
In the case of `NCCCNc1cc(-c2ccc(N3CCNCC3)cc2)nc2ccccc12` [Example 86], the IC50 is reported as 50 nM.
Compound `COc1cc2nc(-c3ccc(N4CCNCC4)cc3)cc(NCCCN(C)C)c2cc1OC` [Example 87, N-(3-(dimethylamino)propyl)-6,7-dimethoxy-2-(4-(piperazin-1-yl)phenyl)quinolin-4-amine] has an IC50 of 50 nM.
`CN(CCCN)CCCNc1cc(-c2cccc(N3CCNCC3)c2)nc2ccccc12` [Example 88] was tested, and the IC50 was 60 nM.
In the case of `COc1ccc(-c2cc(NC3CCC(N)CC3)c3cc(OC)c(OC)cc3n2)cc1` (centres unmarked) [Example 89], the IC50 is reported as 80 nM.
`NC1CCC(Nc2cc(-c3ccc(N4CCNCC4)cc3)nc3ccccc23)CC1` (centres unmarked) [Example 90] showed an IC50 of 80 nM.
Compound `CC(C)C(N)C(=O)N1CCN(c2ccc(-c3cc(NCCCN(C)C)c4ccccc4n3)cc2)CC1` (centres unmarked) [Example 91, 2-amino-1-(4-(4-(4-((3-(dimethylamino)propyl)amino)quinolin-2-yl)phenyl)piperazin-1-yl)-3-methylbutan-1-one] has an IC50 of 90 nM.
`CC(N)C(=O)N1CCN(c2ccc(-c3cc(NCCCN(C)C)c4ccccc4n3)cc2)CC1` (centres unmarked) [Example 92] was tested, and the IC50 was 90 nM.
In the case of `CN1CCC(n2cc(-c3cc(NCCCN)c4ccccc4n3)cn2)CC1` [Example 93], the IC50 is reported as 90 nM.
Compound `COc1ccc(-c2cc(NCCCN(C)CCCN)c3cc(OC)c(OC)cc3n2)cc1` [Example 94] has an IC50 of 100 nM.
In the case of `NCCCNc1cc(-c2ccc(C3CCNCC3)cc2)nc2ccccc12` [Example 95], the IC50 is reported as 110 nM.
`NCCCNc1cc(-c2cnn(C3CCNCC3)c2)nc2ccccc12` [Example 96] was tested, and the IC50 was 120 nM.
`COc1ccc(-c2cc(N[C@H]3C[C@H](N)C3)c3cc(OC)c(OC)cc3n2)cc1` [Example 97] was tested, and the IC50 was 130 nM.
For `CN(C)CCCNc1cc(-c2cccc(N3CCNCC3)c2)nc2ccccc12` [Example 98], the IC50 was 140 nM.
`CN(C)CCCNc1cc(-c2ccc(N3CCNCC3)cc2)nc2ccccc12` [Example 99, N^1,N^1-dimethyl-N3-(2-(4-(piperazin-1-yl)phenyl)quinolin-4-yl)propane-1,3-diamine] was tested, and the IC50 was 150 nM.
Work on `NCCCNc1cc(-c2cnn(CCN3CCCC3)c2)nc2ccccc12` [Example 100] yielded an IC50 of 160 nM.
`COc1ccc(-c2cc(N[C@H]3CC[C@H](N)CC3)c3cc(OC)c(OC)cc3n2)cc1` [Example 101] was tested, and the IC50 was 170 nM.
With `COc1ccc(-c2cc(NC3CCN(C4CCC(N)CC4)CC3)c3ccccc3n2)cc1` (centres unmarked) [Example 102] the IC50 was 180 nM.
For `CN(C)CCCNc1cc(-c2ccc(N3CCNCC3)cc2)nc2ccc(F)cc12` [Example 103, N-(3-(dimethylamino)propyl)-6-fluoro-2-(4-(piperazin-1-yl)phenyl)quinolin-4-amine], the IC50 was 220 nM.
With `COc1ccc(-c2cc(NC3CCN(CCCN)CC3)c3ccccc3n2)cc1` [Example 104] the IC50 was 220 nM.
`COc1ccc(-c2cc(N[C@H]3CC[C@@H](N)CC3)c3cc(OC)c(OC)cc3n2)cc1` [Example 105] gave an IC50 of 230 nM.
`CC(C)C(N)C(=O)NC(C(=O)NC(C(=O)N1CCN(c2ccc(-c3cc(NCCCN(C)C)c4ccccc4n3)cc2)CC1)C(C)C)C(C)C` (centres unmarked) [Example 106] showed an IC50 of 240 nM.
With `CN(C)CCCNc1cc(-c2cnn(C3CCN(C)CC3)c2)nc2ccccc12` [Example 107] the IC50 was 260 nM.
`COc1ccc(-c2cc(NCCCN(C)C)c3cc(OC)c(OC)cc3n2)cc1` [Example 108] was tested, and the IC50 was 270 nM.
With `COc1ccc(-c2cc(NCCCN)c3cc(OC)c(OC)cc3n2)cc1` [Example 109] the IC50 was 290 nM.
